# Source: patent US10858388B2, “Selective progesterone receptor modulator (SPRM) regimen” (BAYER PHARMA AKTIENGESELLSCHAFT, priority 2015, dated 2020)
# Legend:
# Type in all cases: in vivo, human
# [1] = tested on: subjects with uterine fibroids; experiment: Study 17541: endometrium thickness, 2x3-month treatment with break period (Example 7); conditions: 2 mg once daily, 6 subjects, blinded, 2x12 weeks with 1 bleeding episode break or 1x12 weeks
# Method: A randomized, parallel-group, double-blind, placebo-controlled, multi-center study to assess efficacy of a dose of 2 mg of Compound 1 where primary efficacy variable is Endometrial thickness, in subjects with uterine fibroids over 2×3-month with break period allowing bleeding episode.
# (§1) Route of administration: Oral
# Duration of treatment: 2×3-month [2×12 weeks]+one bleeding episode (B1) and 1×3-month [1×12 weeks] (B2) without treatment break
# Women, 18 to 50 years old, with uterine fibroids documented by transvaginal or abdominal ultrasound at screening with at least 1 uterine fibroid with largest diameter 3.0 cm and heavy menstrual bleeding (HMB) […] were eligible for enrolment in the study.
# Number of Women: 6 subjects that have finalized the treatment
# Eligible subjects were equally randomized to one of the treatment groups (Placebo, 2 mg of Compound 1). Treatment period was started during the first three days of the bleeding episode following randomization or ongoing at randomization. The treatment period was consisting of daily tablet intake without treatment break. • Treatment B1: 2 mg of Compound 1 (12 weeks), 1 bleeding episode, 2 mg of Compound 1 (12 • weeks). • Treatment B2: Placebo (12 weeks), 1 bleeding episode, 2 mg of Compound 1 (12 weeks).
# Efficacy Measurement: • endometrial biopsies, • cervical smear, • transvaginal ultrasound (TUV) (endometrial thickness, ovaries). […]
# uterine fibroids = experiment: Study 15788: change in volume of largest fibroid by MRI and TVU (Example 8)
# Method: A randomized, parallel-group, double-blind, placebo-controlled, multi-center study to assess efficacy of different doses of Compound 1 where secondary efficacy variable is the change in volume of the largest fibroid in subjects wherein treatment is of 3 months [1×12 weeks (84 days)]. Doses: 0.5 mg, 1 mg, 2 mg, or 4 mg once daily Route of administration: Oral Duration of treatment: 1×12 weeks (84 days) Women, 18 to 50 years old, with uterine fibroids documented by transvaginal or abdominal ultrasound at screening with at least 1 uterine fibroid with largest diameter 3 cm and heavy menstrual bleeding (HMB) 80 ml were be eligible for enrolment in the study. The secondary efficacy variable is the percent change in volume of the largest fibroid compared to baseline (measured by MRI and TVU) • MRI: Magnetic Resonance Imaging • TVU: Transvaginal/abdominal ultrasound Ultrasound examination was performed consistent with the schedule of procedures (Table 1). For each subject, the most appropriate ultrasound method (transvaginal or abdominal) was used depending on fibroid location and this method was consistently used throughout the study. The same ultrasound machine (per site) should be used throughout the study. The 3 largest fibroids were identified during the screening period. […]
# healthy subjects = experiment: Amenorrhea in healthy subjects
# Text: Compound 1 is a potent Selective Progesterone Receptor Modulator (SPRM) and more particularly a competitive Progesterone Receptor (PR) antagonist creating alternatives for the treatment of Uterine Fibroids. […] Amenorrhea corresponds to the major objective of the treatment i.e. control of excessive uterine bleeding.
# [2] = tested on: subjects with uterine fibroids; experiment: Study 15788: amenorrhea, 3-month treatment (Example 4)
# Method: A randomized, parallel-group, double-blind, placebo-controlled, multi-center study to assess efficacy of different doses of Compound 1 where primary efficacy variable is Amenorrhea, in subjects with uterine fibroids over a 3-month treatment [1×12 weeks/84 days]
# Doses: 0.5 mg, 1 mg, 2 mg, or 4 mg once daily
# as §1
# Duration of treatment: 1×12 weeks (84 days)
# Women, 18 to 50 years old, with uterine fibroids documented by transvaginal or abdominal ultrasound at screening with at least 1 uterine fibroid with largest diameter 3 cm and Heavy Menstrual Bleeding (HMB) 80 ml were eligible for enrolment in the study.
# Eligible subjects were equally randomized to one of the treatment groups (Placebo, 0.5 mg, 1 mg, 2 mg, or 4 mg Compound 1). Treatment was started during the first week of the menstrual cycle following randomization. The treatment period consisted of 12 weeks (84 days) of daily tablet intake.
# Efficacy Measurement: • daily documentation of bleeding intensity (electronic diary or eDiary) • Menstrual Pictogram MP (electronic diary or eDiary) • collection of sanitary products for analysis of menstrual blood loss with alkaline hematin (AH) method
# Onset of amenorrhea is defined by the first day for which the menstrual blood loss (assessed by MP) for all subsequent 28-day periods up to the end of the treatment period is less than 2 ml.
# The primary objective estimates the dose-response curve based on the primary endpoint women with amenorrhea by dose.
compound,measurement,setting,value
"C[C@]12C[C@H](c3ccc(S(C)(=O)=O)cc3)C3=C4CCC(=O)C=C4CC[C@H]3[C@@H]1CC[C@@]2(O)C(F)(F)C(F)(F)F [Compound 1, (11β,17β)-17-Hydroxy-11-[4-(methylsulphonyl)phenyl]-17-(pentafluoroethyl)estra-4,9-dien-3-one]",Endometrial size,[1],≤ 18 mm
same,Treatment-emergent critical endometrial findings,[1],no treatment-emergent critical endometrial findings occurred
same,Fibroid size during treatment,"uterine fibroids; 0.5-4 mg once daily, 12 weeks, MRI and TVU",dose-dependent reduction in fibroid size
same,Effect on fibroid size during follow-up,uterine fibroids; follow-up after 12 weeks treatment,partially sustained during follow-up
same,Amenorrhea,healthy subjects,Amenorrhea was observed
same,Amenorrhea (<2 ml) at EoT (%) 12 Weeks,[2]; 0.5 mg once daily oral,66.63%
same,Amenorrhea (<2 ml) at EoT (%) 12 Weeks,[2]; 1 mg once daily oral,87.09%
same,Amenorrhea (<2 ml) at EoT (%) 12 Weeks,[2]; 2 mg once daily oral,91.65%
same,Amenorrhea (<2 ml) at EoT (%) 12 Weeks,[2]; 4 mg once daily oral,89.81%
same,Induction of amenorrhea,"[2]; 0.5-4 mg once daily, 12 weeks",dose-dependent induction of amenorrhea
same,Heavy menstrual bleeding,"[2]; 0.5-4 mg once daily, 12 weeks, FIG. 3",reduced quickly and sustainably
same,Subjects achieving amenorrhea during treatment,"[2]; 12 weeks, FIG. 3",Most subjects even achieved amenorrhea already during treatment
